This note sets out measurements from patent US11739100B2, “2,3-dihydro-1h-imidazo{1,2-a}pyrimidin-5-one and this 1,2,3,4-tetrahydropyrimido{1,2-a}pyrimidin-6-one derivatives comprising a substituted morpholine, preparation thereof and pharmaceutical use thereof” (SANOFI, priority 2012, dated 2023).

Each structure is given as a SMILES string.

The target of this test is T1, recombinant Vps34 (Homo sapiens, UniProt Q8NEB9).
T1 construct: purchased Invitrogen PV5126
In words: Phosphorylation of phosphatidylinositol (PI) by Vps34 in vitro, ADP detected by TR-FRET (HTRF Transcreener ADP). In kind it is biochemical. Conditions: 10 μM ATP, 55 μg/ml PI, approximately 3 nM Vps34, 1 hour at ambient temperature; absolute IC50, mean of two independent experiments; read-out: IC50 activity range.

T1 sequence (Q8NEB9 whole entry): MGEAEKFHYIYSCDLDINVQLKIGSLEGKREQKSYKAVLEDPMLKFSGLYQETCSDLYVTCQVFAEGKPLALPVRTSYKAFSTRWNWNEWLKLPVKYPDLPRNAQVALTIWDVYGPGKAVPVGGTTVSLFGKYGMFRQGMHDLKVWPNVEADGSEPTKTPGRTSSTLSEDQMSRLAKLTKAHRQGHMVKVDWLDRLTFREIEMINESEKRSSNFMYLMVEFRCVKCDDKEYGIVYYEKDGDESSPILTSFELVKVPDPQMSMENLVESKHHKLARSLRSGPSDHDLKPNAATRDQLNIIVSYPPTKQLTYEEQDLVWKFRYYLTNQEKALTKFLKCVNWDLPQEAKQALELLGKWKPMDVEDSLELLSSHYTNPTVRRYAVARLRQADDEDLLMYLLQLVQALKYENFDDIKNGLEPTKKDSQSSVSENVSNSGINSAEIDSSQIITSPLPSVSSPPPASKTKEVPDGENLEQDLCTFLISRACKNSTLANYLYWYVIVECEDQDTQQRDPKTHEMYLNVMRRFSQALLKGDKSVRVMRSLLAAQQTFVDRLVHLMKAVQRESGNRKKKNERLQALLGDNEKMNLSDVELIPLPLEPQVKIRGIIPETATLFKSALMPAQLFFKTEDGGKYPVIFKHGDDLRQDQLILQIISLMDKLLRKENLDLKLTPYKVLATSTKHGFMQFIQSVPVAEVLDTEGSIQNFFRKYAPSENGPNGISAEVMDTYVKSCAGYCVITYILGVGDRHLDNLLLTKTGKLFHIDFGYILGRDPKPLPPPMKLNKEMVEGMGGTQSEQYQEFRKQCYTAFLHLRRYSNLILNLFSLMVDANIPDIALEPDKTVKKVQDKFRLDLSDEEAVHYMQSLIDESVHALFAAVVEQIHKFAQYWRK

In the case of `C[C@@H]1COCCN1c1nc2n(c(=O)c1F)[C@@H](C(F)(F)F)CCN2Cc1nc(C2CC2)no1` [Example 147, (R)-9-(3-Cyclopropyl-[1,2,4]oxadiazol-5-yl-methyl)-3-fluoro-2-((R)-3-methyl-morpholin-4-yl)-6-trifluoromethyl-6,7,8,9-tetrahydro-pyrimido[1,2-a]-pyrimidin-4-one], the IC50 is less than 10 nM.

Regarding `C[C@@H]1COCCN1c1nc2n(c(=O)c1F)[C@@H](C(F)(F)F)CCN2CC(=O)c1cccnc1` [Example 126, (R)-3-Fluoro-2-((R)-3-methylmorpholin-4-yl)-9-(2-oxo-2-pyridin-3-ylethyl)-6-trifluoromethyl-6,7,8,9-tetrahydro-pyrimido[1,2-a]-pyrimidin-4-one], the IC50 is less than 10 nM. On to `CC(C)CC(=O)CN1c2nc(N3CCOC[C@H]3C)c(F)c(=O)n2CC[C@H]1C(F)(F)F` [Example 280, (S)-3-Fluoro-2-((R)-3-methylmorpholin-4-yl)-9-(4-methyl-2-oxo-pentyl)-8-trifluoromethyl-6,7,8,9-tetrahydro-pyrimido[1,2-a]-pyrimidin-4-one], for which the IC50 was less than 10 nM.

As for `C[C@@H]1COCCN1c1cc(=O)n2c(n1)N(CC(=O)C1CCCCC1)[C@H](C(F)(F)F)CC2` [Example 258, (S)-9-(2-Cyclohexyl-2-oxoethyl)-2-((R)-3-methylmorpholin-4-yl)-8-trifluoromethyl-6,7,8,9-tetrahydro-pyrimido[1,2-a]-pyrimidin-4-one], the IC50 was less than 10 nM. In the case of `Cc1noc(CN2CC[C@H](C(F)(F)F)n3c2nc(N2CCOC[C@H]2C)c(F)c3=O)n1` [Example 149, (R)-3-Fluoro-2-((R)-3-methylmorpholin-4-yl)-9-(3-methyl-[1,2,4]oxadiazol-5-yl-methyl)-6-trifluoromethyl-6,7,8,9-tetrahydro-pyrimido[1,2-a]-pyrimidin-4-one] it was less than 10 nM; in that of `C[C@@H]1COCCN1c1cc(=O)n2c(n1)N(CC(=O)C1CC1)CC[C@@H]2C(F)(F)F` [Example 118, (R)-9-(2-Cyclopropyl-2-oxoethyl)-2-((R)-3-methylmorpholin-4-yl)-6-trifluoromethyl-6,7,8,9-tetrahydro-pyrimido[1,2-a]-pyrimidin-4-one], less than 10 nM; in that of `CC(C)c1noc(CN2c3nc(N4CCOC[C@H]4C)c(F)c(=O)n3CC[C@H]2C(F)(F)F)n1` [Example 248, (S)-3-Fluoro-9-(3-isopropyl-[1,2,4]oxadiazol-5-yl-methyl)-2-((R)-3-methylmorpholin-4-yl)-8-trifluoromethyl-6,7,8,9-tetrahydro-pyrimido[1,2-a]-pyrimidin-4-one], less than 10 nM. In the case of `Cc1nnc(CN2c3nc(N4CCOC[C@H]4C)cc(=O)n3CC[C@H]2C(F)(F)F)o1` [Example 96, (S)-2-((R)-3-Methyl-morpholin-4-yl)-9-(5-methyl-[1,3,4]oxadiazol-2-yl-methyl)-8-trifluoromethyl-6,7,8,9-tetrahydro-pyrimido[1,2-a]-pyrimidin-4-one] it was less than 10 nM; in that of `COc1cc(N2CC[C@H](C(F)(F)F)n3c2nc(N2CCOC[C@H]2C)c(F)c3=O)ccn1` [Example 119, (R)-3-Fluoro-9-(2-methoxypyridin-4-yl)-2-((R)-3-methyl-morpholin-4-yl)-6-trifluoromethyl-6,7,8,9-tetrahydro-pyrimido[1,2-a]-pyrimidin-4-one], less than 10 nM. `Cc1nocc1C(=O)CN1c2nc(N3CCOC[C@H]3C)cc(=O)n2CC[C@H]1C(F)(F)F` [Example 268, (S)-9-[2-(3-Methyl-isoxazol-4-yl)-2-oxo-ethyl]-2-((R)-3-methyl-morpholin-4-yl)-8-trifluoromethyl-6,7,8,9-tetrahydro-pyrimido[1,2-a]-pyrimidin-4-one]: the IC50 was greater than 100 nM. Then `C[C@@H]1COCCN1c1cc(=O)n2c(n1)N(Cc1cocn1)[C@](C)(C(F)(F)F)C2` [Example 183, (S)-2-Methyl-7-((R)-3-methylmorpholin-4-yl)-1-oxazol-4-ylmethyl-2-trifluoromethyl-2,3-dihydro-1H-imidazo[1,2-a]-pyrimidin-5-one], with less than 10 nM; and `CC(C)Oc1ccc(CN2c3nc(N4CCOC[C@H]4C)cc(=O)n3CC[C@H]2C(F)(F)F)cn1` [Example 229, (S)-9-(6-Isopropoxy-pyridin-3-ylmethyl)-2-((R)-3-methyl-morpholin-4-yl)-8-trifluoromethyl-6,7,8,9-tetrahydro-pyrimido[1,2-a]-pyrimidin-4-one], with less than 10 nM; and `CC(=O)CN1CC[C@H](C(F)(F)F)n2c1nc(N1CCOC[C@H]1C)c(F)c2=O` [Example 148, (R)-3-Fluoro-2-((R)-3-methylmorpholin-4-yl)-9-(2-oxopropyl)-6-trifluoromethyl-6,7,8,9-tetrahydro-pyrimido[1,2-a]-pyrimidin-4-one], with 10 to 100 nM. Consider `C[C@@H]1COCCN1c1cc(=O)n2c(n1)N(CCc1ccccn1)[C@H](C(F)(F)F)CC2` [Example 220, (S)-2-((R)-3-Methyl-morpholin-4-yl)-9-(2-pyridin-2-ylethyl)-8-trifluoromethyl-6,7,8,9-tetrahydro-pyrimido[1,2-a]-pyrimidin-4-one], for which the IC50 is less than 10 nM. In the case of `C[C@@H]1COCCN1c1cc(=O)n2c(n1)N(Cc1cnco1)[C@](C)(C(F)(F)F)C2` [Example 182, (S)-2-Methyl-7-((R)-3-methylmorpholin-4-yl)-1-oxazol-5-ylmethyl-2-trifluoromethyl-2,3-dihydro-1H-imidazo[1,2-a]-pyrimidin-5-one] it was 10 to 100 nM. In the case of `C[C@@H]1COCCN1c1nc2n(c(=O)c1F)[C@@H](C(F)(F)F)CCN2c1ccc(OC(F)F)nc1` [Example 127, (R)-9-(6-Difluoromethoxy-pyridin-3-yl)-3-fluoro-2-((R)-3-methyl-morpholin-4-yl)-6-trifluoromethyl-6,7,8,9-tetrahydro-pyrimido[1,2-a]-pyrimidin-4-one] it was less than 10 nM; in that of `CC(C)c1noc(CN2c3nc(N4CCOC[C@H]4C)cc(=O)n3CC[C@H]2C(F)(F)F)n1` [Example 226, (S)-9-(3-Isopropyl-[1,2,4]oxadiazol-5-yl-methyl)-2-((R)-3-methylmorpholin-4-yl)-8-trifluoromethyl-6,7,8,9-tetrahydro-pyrimido[1,2-a]-pyrimidin-4-one], less than 10 nM. In the case of `O=c1cc(N2CCOCC2CO)nc2n1CC[C@@H](C(F)(F)F)N2Cc1ccc(Cl)s1` (single isomer, unassigned) [Example 177] it was 10 to 100 nM; in that of `CNC(=O)CN1c2nc(N3CCOC[C@H]3C)cc(=O)n2CC[C@H]1C(F)(F)F` [Example 223, N-Methyl-2-[(S)-8-((R)-3-methylmorpholin-4-yl)-6-oxo-2-trifluoromethyl-3,4-dihydro-2H,6H-pyrimido[1,2-a]-pyrimidin-1-yl]-acetamide], 10 to 100 nM.

As to `O=c1cc(N2CCOCC2CO)nc2n1CC[C@@H](C(F)(F)F)N2c1cc(F)cc(F)c1` (single isomer, unassigned) [Example 176], the IC50 is greater than 100 nM. For `C[C@@H]1COCCN1c1nc2n(c(=O)c1F)[C@@H](C(F)(F)F)CCN2c1ccc(C(F)F)nc1` [Example 121, (R)-9-(6-Difluoromethylpyridin-3-yl)-3-fluoro-2-((R)-3-methylmorpholin-4-yl)-6-trifluoromethyl-6,7,8,9-tetrahydro-pyrimido[1,2-a]-pyrimidin-4-one], the IC50 is less than 10 nM. In the case of `C[C@@H]1COCCN1c1nc2n(c(=O)c1F)CC[C@@H](C(F)(F)F)N2CC(C)(C)O` [Example 49, (S)-3-Fluoro-9-(2-hydroxy-2-methyl-propyl)-2-((R)-3-methylmorpholin-4-yl)-8-trifluoromethyl-6,7,8,9-tetrahydro-pyrimido[1,2-a]-pyrimidin-4-one], the IC50 is less than 10 nM. With `CC(=O)CN1CC[C@H](C(F)(F)F)n2c1nc(N1CCOC[C@H]1C)cc2=O` [Example 145, (R)-2-((R)-3-Methyl-morpholin-4-yl)-9-(2-oxopropyl)-6-trifluoromethyl-6,7,8,9-tetrahydro-pyrimido[1,2-a]-pyrimidin-4-one], the IC50 lay within 10 to 100 nM.

As for `C[C@@H]1COCCN1c1cc(=O)n2c(n1)N(Cc1ccc(Cl)s1)[C@H](C(F)(F)F)CC2` [Example 98, (S)-9-(5-Chloro-thiophen-2-ylmethyl)-2-((R)-3-methyl-morpholin-4-yl)-8-trifluoromethyl-6,7,8,9-tetrahydro-pyrimido[1,2-a]-pyrimidin-4-one], the IC50 is less than 10 nM. In the case of `C[C@@H]1COCCN1c1cc(=O)n2c(n1)N(Cc1cocn1)[C@H](C(F)(F)F)CC2` [Example 103, (S)-2-((R)-3-Methyl-morpholin-4-yl)-9-oxazol-4-ylmethyl-8-trifluoromethyl-6,7,8,9-tetrahydro-pyrimido[1,2-a]-pyrimidin-4-one] it was less than 10 nM; in that of `O=c1cc(N2CCOC(CF)C2)nc2n1CC[C@@H](C(F)(F)F)N2Cc1ccccc1` (single isomer, unassigned) [Example 194], greater than 100 nM. Turning to `C[C@@H]1COCCN1c1cc(=O)n2c(n1)N(Cc1nc(C(C)(C)C)no1)[C@H](C(F)(F)F)CC2` [Example 228, (S)-9-(3-tert-Butyl-[1,2,4]oxadiazol-5-yl-methyl)-2-((R)-3-methylmorpholin-4-yl)-8-trifluoromethyl-6,7,8,9-tetrahydro-pyrimido[1,2-a]-pyrimidin-4-one], the IC50 was less than 10 nM. Take `C[C@@H]1COCCN1c1cc(=O)n2c(n1)N(CC(N)=O)[C@H](C(F)(F)F)CC2` [Example 263, 2-[(S)-8-((R)-3-Methyl-morpholin-4-yl)-6-oxo-2-trifluoromethyl-3,4-dihydro-2H,6H-pyrimido[1,2-a]-pyrimidin-1-yl]-acetamide]: the IC50 is greater than 100 nM.

As to `C[C@@H]1COCCN1c1cc(=O)n2c(n1)N(Cc1nnc(C(F)(F)F)o1)[C@H](C(F)(F)F)CC2` [Example 140, (S)-2-((R)-3-Methyl-morpholin-4-yl)-8-trifluoromethyl-9-(5-trifluoromethyl-[1,3,4]oxadiazol-2-yl-methyl)-6,7,8,9-tetrahydro-pyrimido[1,2-a]-pyrimidin-4-one], the IC50 was less than 10 nM.
